Broadly, the melting point is the temperature, or range, at which the solid turns liquid.

`CC(C)(C)OC(=O)N1C(=O)CCC1c1ccc(Br)cc1` (stereo not given) came in with a melting point of 122 to 124 °C.
`Cc1c(Br)cc(C(C)(CO)c2ccc(C(C)C)cc2)c(O)c1C` (stereo not given) gave a melting point of 110 to 111 °C.
For the molecule `CS(=O)(=O)Nc1cc2c(cc1Oc1ccc(F)cc1F)CCC2`, the melting point is 85 to 87 °C.
Molecule `COc1ccc(CNc2ccc(C#N)cc2)cc1OC` returned a melting point of 150 °C.
For `CCOC(=O)c1c(C(C)(C)O)nc(SC)n1Cc1ccc(-c2ccccc2-c2nnn[nH]2)cc1` the value was 125 to 127 °C; for `COc1cc2c(cn1)CC(CC(=O)O)C=C2` (stereo not given), 151 to 152 °C; for `CCCCC1OC(=O)c2cc(C#N)ccc21` (stereo not given), 85 to 86 °C.
Turning to `Cc1c(C)c2c3c(cc(C)c2[nH]c1=O)CC(CN=[N+]=[N-])O3` (stereo not given), the melting point fell in the range of 187 to 189 °C.
On to `O=C(Cc1ccccc1)OCCOC(=O)NC1(C(=O)O)CC1`, for which the melting point lay in the range of 142 to 146 °C.
For `CCCc1nc2cc(C(=O)c3ccccc3)ccc2n1Cc1ccc(C(=O)OCC)cc1` the value was 126 to 128 °C; for `Cc1c(-c2ccncn2)nc2n(c1=O)CCCN2CC(=O)c1ccccc1`, 184 to 185 °C; for `Cc1cnc2c(C(=O)NC=NO)c(Cl)ccc2c1`, 235 to 238 °C.
With `CCOC(=O)c1cn(C2CC2)c2c(C)c(N3CCN(C)CC3)c(F)c(Cl)c2c1=O` the figure was 175 to 177 °C; with `COc1cc2onc(-c3ccccc3F)c2cc1Cl`, 165 to 166 °C; with `COC(=O)[C@H](c1ccccc1Cl)N1CCc2sc(OC(=O)COc3ccccc3)cc2C1`, 104 to 106 °C.
For `CCOCCOC(=O)C(=O)Nc1nc(-c2ccc(OC)cc2)cs1` the value was 130 to 133 °C.
Regarding `CS(=O)(=O)c1ccc(-c2ccc(S(=O)(=O)CC(CO)N(O)C=O)cc2)cc1` (stereo not given), the melting point lay within 165 to 167 °C.
For `N=C(NCc1cccs1)NN=Cc1c(Cl)cccc1Cl`, the melting point was in the range of 135 to 137 °C.
Take `CC1(C)CCCC[C@H]1[C@H](O)c1ccc(F)cc1`: the melting point was in the range of 105 to 108 °C.
For `CCOC(=O)C1=C(C)NC(N)=C(C(=O)OCC)C1C` (stereo not given) the value was 140 °C; for `CCOC(=O)c1cc(=O)cc(-c2ccccc2OC)o1`, 78 to 81 °C; for `CC(C)c1ccc(C(=O)CCCCl)cc1`, 35 to 37 °C.
As for `CS(=O)(=O)Nc1nc(CN2CCC(c3c[nH]c4ccccc34)CC2)cs1`, the melting point is 215 to 217 °C.
`O=C(O)c1cccc2c1CCc1ccsc1-2`: the melting point fell in the range of 182 to 184 °C.
Take `CCOCc1nc2c(N)nc3ccccc3c2n1CC1(NC(C)=O)CCCCC1`: the melting point lay within 178 to 180 °C.
For `Cc1c(C(=O)Cl)ccc(S(C)(=O)=O)c1-c1ccon1` the value was 85 to 88 °C.
`CSc1ccc(CC(=O)NC(NC(=NC#N)Nc2cccc3ncccc23)C(C)(C)C)cc1` (stereo not given) yielded a melting point of 188 to 189 °C.
Take `C#CCOc1ccc(C(=O)C=Cc2cccnc2)c(O)c1`: the melting point lay in the range of 115 to 117 °C.
For `CC(C)(C)c1ncc([C@H]2[C@H](C(=O)O)C2(C)C)cn1` (relative stereo) the value was 168 to 169 °C; for `O=c1cc(-c2ccccc2)oc2cc(OCCCCCN3CCC(O)CC3)ccc12`, 94 to 95 °C.
For `CCCCc1nc(C(=O)C(C)C)c(C#N)[nH]1` the value was 88 to 89 °C; for `CCCCc1nc2c(N)nc3ccc(OCc4ccccc4)cc3c2n1CCCCNC(=O)c1ccccc1`, 173 to 174 °C; for `N=C(NO)c1ccc(-c2ccc(-c3ccc(C(=N)NO)cn3)o2)nc1`, 272 to 274 °C.
`Cc1nc(N2CCN(CC3CCCCO3)C2=O)sc1C(=O)NCc1cccnc1` (stereo not given) showed a melting point of 174 to 175 °C.
For `C#CC(O)c1csc(C)n1` (stereo not given) the value was 94 °C; for `CC1C(=O)N(c2cccc(Cl)c2)N=C1N` (stereo not given), 138 °C.
With `CC(C)(C)OC(=O)n1c(=O)n(C2CC3CC(N4CCN(c5ccc(F)cc5)CC4)CC3C2)c2ccccc21` (stereo not given) the figure was 244 to 245 °C; with `COC(=O)Cc1ccc2c(c1)C(=O)c1ccccc1CO2`, 74 to 76 °C; with `Cc1nccn1Cc1ccc(NC(=O)C(F)(F)F)cc1C(F)(F)F`, 229 to 230 °C.
Molecule `Cc1cc2oc(=O)c3c(c2cc1C)CCN(CCN1CCCCC1)C3` gave a melting point of 142 to 145 °C.
`CN(CC(O)c1ccc(Br)cc1)C(=O)OC(C)(C)C` (stereo not given): the melting point fell in the range of 80 to 82 °C.
For `CCCCCCCCCOC(=O)c1cc(-c2csc(-c3ccc(OCC)c(OCC)c3)n2)ccc1O` the value was 67 to 68 °C; for `N#CCCCCn1ccc(NC(=S)NCC(F)(F)F)n1`, 96 to 98 °C; for `O=C(Cc1ccccc1)N[C@H](Cc1ccc(C(F)(F)F)cc1)[C@@H](O)c1ccc(F)cc1` (racemic), 173 to 174 °C.
Take `CCCCOc1ccc(C(=O)N[C@@H]2COc3cccc(N4CCN(C)CC4)c3C2)cc1`: the melting point lay in the range of 192 to 194 °C.
With `O=C1NC(=O)C(Cc2ccc(OCc3cscn3)cc2)S1` (stereo not given) the figure was 151 to 153 °C.
On to `Cc1nnc(Sc2c(C)cccc2C)o1`, for which the melting point was 53 to 54 °C.
With `COc1cc([N+](=O)[O-])ccc1-c1ccc(-c2ccc([N+](=O)[O-])cc2OC)o1` the figure was 308 to 310 °C.
For `CCCc1nc2cccc(C(=O)O)c2n1Cc1ccc(-c2ccccc2-c2nc(=O)o[nH]2)cc1` the value was 169 to 171 °C.
For `O=C(COc1cccc(Cl)c1)NCCO[N+](=O)[O-]` the value was 62 to 64 °C; for `NC(c1ccccc1)c1ccc(C(N)c2ccccc2)cc1` (stereo not given), 123 to 127 °C.
Molecule `Cn1c(C(F)(F)F)cc(=O)n(-c2ccc3snc(COCC(=O)O)c3c2)c1=O` had a melting point of 191 to 192 °C.
For `OC1c2ccccc2CCC12CCCCN2` (stereo not given) the value was 125 to 127 °C; for `CCc1nc2c(cnn2CC)c(NC2CCOCC2)c1CNC(=O)c1cccc(C(=O)NCc2cc(Cl)cc(-c3cccc(CN4CCCN(C)CC4)c3)c2)c1`, 111 to 113 °C.
For `CCOc1ccc(S(=O)(=O)Nc2cccnc2Nc2ccccc2)cc1`, the melting point was 161 to 162 °C.
With `COc1ccc(-c2cc3ccccc3[nH]2)cc1NC(=S)NCCNC(=O)OC(C)(C)C` the figure was 159 to 160 °C; with `CC(C)(C)OC(=O)N[C@@H](Cc1ccccc1)C(=O)CCC(=O)N[C@@H](Cc1c[nH]c2ccccc12)C(=O)O`, 141 to 143 °C; with `COC(=O)C1(NS(=O)(=O)c2ccc3c(Cl)cnc(Cl)c3c2)CCOCC1`, 168 to 170 °C.
The molecule `CC(C)(C)OC(=O)NC1CCCOCC=CC2CC2(C(=O)NS(=O)(=O)C2CC2)NC(=O)C2CC(OC(=O)c3ccc(-c4ccccc4)cc3)CN2C1=O` (stereo not given) returned a melting point of 160 to 162 °C.
With `CCCCCCCCCCCCSC1C(=O)N(c2c(Cl)cc(Cl)cc2Cl)N=C1Nc1cc(OC)c(Cl)cc1Cl` (stereo not given) the figure was 100 to 102 °C; with `Brc1ccc(SCCOCCSc2ccc(Br)cc2)cc1`, 53 °C.
For `ClC(Cl)(Cl)c1nsc(N2CCCC2)n1` the value was 106 to 107 °C.
With `CCc1ccc2oc(C(=O)Nc3ccc(-c4ccc(S(=O)(=O)NC(C(=O)O)C(C)C)cc4)cc3)c(C)c2c1O` (stereo not given) the figure was 122 to 125 °C; with `CCCc1c(C(=O)C(C)C)c2ccc(C(=O)O)cc2n1Cc1ccccc1F`, 212 to 213 °C.
For the molecule `CCN1C(=O)Cc2cc3c(cc21)C(=O)c1ccccc1CO3`, the melting point lay within 186 to 188 °C.
With `CCCCc1nc(C(C)=O)c(C#N)n1Cc1ccc(-c2ccccc2C(=O)O)cc1` the figure was above 55 °C.
With `CC(C)c1ncc(O)cn1` the figure was 184 °C.
For `NC(=O)c1c(C(=O)O)cnn1-c1cccc(Cl)c1Cl` the value was 228 to 230 °C; for `c1ccc(C(OC2CCN(c3ccc4ncnn4n3)CC2)c2ccccc2)cc1`, 137 to 139 °C; for `COc1ccc2sc(C(=O)NCCCCC(=O)O)c(OC(C)C)c2c1`, 135 to 137 °C.
In turn, `O=C(C#Cc1ccccc1)Nc1nc2ccccc2s1` came in with a melting point of 174 to 176 °C.
The molecule `O=C1CCC(=O)C(Cc2ccccc2)N1` (stereo not given) gave a melting point of 140 to 141 °C.
For `Cc1ccc(S(=O)(=O)NCCCCOc2ccc([N+](=O)[O-])cc2)cc1` the value was 87 to 88 °C.
For `COCCOc1ccc(CCCOC(=O)NS(=O)(=O)NCCc2ccccc2)c(Oc2ncc(C(F)(F)F)cc2Cl)c1` the value was 110 to 113 °C; for `COC(=O)C1=C(SC)N(c2ccc(Cl)cc2Cl)CCC1`, 83 to 86 °C; for `O=C1CC2CS(=O)(=O)c3ccccc3C2=NN1c1ccc(Cl)cc1` (stereo not given), 168 to 170 °C.
With `Cc1cccnc1C(=O)NCCNC(=O)OC(C)(C)C` the figure was 81 to 82 °C; with `Cc1ccc(C#N)cc1-c1cc2cnc(NC3CCOCC3)nc2n(C)c1=O`, 254 °C; with `CCCCCOc1ccc(-c2ncc(C#N)c(Cl)n2)cc1`, 140 to 142 °C.
Molecule `O=C(CN1CCOCC1)Nc1ccc(-c2n[nH]c3c2Cc2ccccc2-3)cc1` registered a melting point of 291 to 292 °C.
`CCCC(=O)CC(=O)c1ccc(C2CCC(CC)CC2)cc1` (stereo not given) displayed a melting point of 99 °C.
For the molecule `CCCNC(=O)Nc1ccccc1C(=O)OC`, the melting point is 102 °C.
For `CN1C(=O)C(C2=COc3ccccc3O2)=C(c2c[nH]c3ccc(F)cc23)C1=O` the value was 229 °C; for `Cc1csc(C(=O)OC(C)C)c1N`, 40 °C; for `COc1ccc(Cn2cnc3c(-c4ccco4)nc(OCc4ccccc4)nc32)cc1`, 122 °C.
With `CCCCCCCCCCCCC1(Cn2ccnc2)SCC(CCCC)S1` (stereo not given) the figure was 156 to 161 °C; with `O=C(c1ccccc1)N1CCCC1c1cccc(O)c1` (stereo not given), 167 to 169 °C.
With `CC(C)(C)OC(=O)NC1CCC(=O)NC1=O` (stereo not given) the figure was 214 to 215 °C.
With `On1c(-c2ccc(F)cc2)nc2ccc(Cn3ccnc3)cc21`, the melting point turned out to be 82 °C.
As for `COc1cc(-n2nc3n(c2=S)CCSC3)c(Cl)cc1Cl`, the melting point fell in the range of 131 to 135 °C.
